These results are taken from ChEMBL document CHEMBL4715826, “Selective PPARδ Modulators Improve Mitochondrial Function: Potential Treatment for Duchenne Muscular Dystrophy (DMD)” (ACS Med Chem Lett, 2018).

Data set [1] can be described thus: Clearance in CD-1 mouse at 3 mg/kg, iv. Format: ADME, organism-based. Particulars: in vivo.
For data set [2], the target named is T1, Peroxisome proliferator-activated receptor gamma (Homo sapiens, UniProt P37231).
T1 sequence (P37231 whole entry): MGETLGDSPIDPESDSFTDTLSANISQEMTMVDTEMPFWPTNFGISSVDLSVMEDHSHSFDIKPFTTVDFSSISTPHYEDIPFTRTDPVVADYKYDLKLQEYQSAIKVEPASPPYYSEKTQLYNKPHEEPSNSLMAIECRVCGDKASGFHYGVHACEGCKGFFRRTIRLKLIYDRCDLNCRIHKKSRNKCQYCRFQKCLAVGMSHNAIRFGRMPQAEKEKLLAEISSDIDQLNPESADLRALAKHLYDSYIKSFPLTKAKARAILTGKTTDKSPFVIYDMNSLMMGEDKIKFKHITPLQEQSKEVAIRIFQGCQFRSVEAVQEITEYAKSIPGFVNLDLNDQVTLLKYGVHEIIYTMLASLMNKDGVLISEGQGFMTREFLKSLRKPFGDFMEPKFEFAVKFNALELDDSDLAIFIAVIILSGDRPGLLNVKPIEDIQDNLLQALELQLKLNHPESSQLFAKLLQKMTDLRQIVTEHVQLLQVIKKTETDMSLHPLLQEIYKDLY
The data set is described as follows: Modulator activity at GAL4-fused human PPARgamma LBD (unknown origin) transfected in African green monkey CV1 cells assessed as receptor transactivation by luciferase reporter gene assay. Format: cell-based, CV-1.

Data set [3] is described as follows: Half life in CD-1 mouse at 3 mg/kg, iv. Format: ADME, organism-based. As to conditions: in vivo.
Data set [4] is described as follows: AUC in CD-1 mouse at 1 mg/kg, iv. More on the design: dose 1 mg/kg. Particulars: in vivo. Format: ADME, organism-based.
Data set [5] has as its target T2, Peroxisome proliferator-activated receptor delta (Homo sapiens, UniProt Q03181).
T2 sequence (Q03181 whole entry): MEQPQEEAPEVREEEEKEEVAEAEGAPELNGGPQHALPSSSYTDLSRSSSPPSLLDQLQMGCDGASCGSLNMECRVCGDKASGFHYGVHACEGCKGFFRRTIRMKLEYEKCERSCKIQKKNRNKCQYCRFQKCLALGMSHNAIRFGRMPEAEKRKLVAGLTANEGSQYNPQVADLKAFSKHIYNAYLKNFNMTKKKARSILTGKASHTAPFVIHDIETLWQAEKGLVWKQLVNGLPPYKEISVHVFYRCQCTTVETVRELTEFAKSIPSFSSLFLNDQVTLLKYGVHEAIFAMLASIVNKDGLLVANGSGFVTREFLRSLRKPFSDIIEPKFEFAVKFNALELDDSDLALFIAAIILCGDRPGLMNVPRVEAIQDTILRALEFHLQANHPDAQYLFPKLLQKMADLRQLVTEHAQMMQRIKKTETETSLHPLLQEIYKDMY
Description: Modulator activity at GAL4-fused human PPARdelta LBD (128 to residue at C-terminus) transfected in African green monkey CV1 cells assessed as receptor transactivation by luciferase reporter gene assay

Data set [6] addresses T3, Peroxisome proliferator-activated receptor alpha (Homo sapiens, UniProt Q07869).
T3 sequence (Q07869 whole entry): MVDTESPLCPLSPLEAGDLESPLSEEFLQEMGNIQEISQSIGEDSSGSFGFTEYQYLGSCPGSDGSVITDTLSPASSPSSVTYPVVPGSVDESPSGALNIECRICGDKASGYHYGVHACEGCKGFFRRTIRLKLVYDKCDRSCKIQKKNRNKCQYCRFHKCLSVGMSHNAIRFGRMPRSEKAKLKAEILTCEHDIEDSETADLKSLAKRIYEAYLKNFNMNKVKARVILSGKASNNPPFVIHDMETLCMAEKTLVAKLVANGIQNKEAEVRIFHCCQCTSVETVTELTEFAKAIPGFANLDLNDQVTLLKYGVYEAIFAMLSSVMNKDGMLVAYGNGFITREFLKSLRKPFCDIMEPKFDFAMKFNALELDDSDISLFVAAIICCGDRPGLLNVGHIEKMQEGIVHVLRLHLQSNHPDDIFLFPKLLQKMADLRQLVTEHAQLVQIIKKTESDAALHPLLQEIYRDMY
The data set can be described thus: Modulator activity at GAL4-fused human PPARalpha LBD (unknown origin) transfected in African green monkey CV1 cells assessed as receptor transactivation by luciferase reporter gene assay. Format: cell-based, CV-1.

Data set [7] can be described thus: Selectivity index, ratio of EC50 for transactivation of GAL4-fused PPARalpha LBD (unknown origin) transfected in CV1 cells to EC50 for transactivation of GAL4-fused human PPARdelta LBD (128 to residue at C-terminus) transfected in African green monkey CV1 cells by luciferase reporter gene assay.
A short description of data set [8]: AUC in CD-1 mouse at 3 mg/kg, iv. Particulars: in vivo. Format: ADME, organism-based. Further details: dose 3 mg/kg.
Data set [9] in a line: Half life in CD-1 mouse at 1 mg/kg, iv. Particulars: in vivo. Format: ADME, organism-based.

Structures are written as SMILES. A value given as a limit tells only on which side of the number the result lay.

In data set [1], `C/C(=C\COc1ccccc1Cn1c(C)cnc1-c1ccc(OC(F)(F)F)cc1)CCC(=O)O` gave a clearance of 70 mL/min/kg. Also, the 50% effective concentration (EC50) was > 10 µM in [2], 0.0003 µM in data set [5] and 2.29 µM in [6]. For the same molecule, the half-life in data set [3] is 186 min. In data set [4], the AUC stood at 240 ng·h/mL.

With `Cc1ccc(-c2ncc(C)n2Cc2ccccc2OCCC[C@@H](C)CC(=O)O)cc1`, the values for the EC50 in data set [2], in data set [5] and in [6] were > 10 µM, 0.02 µM and 78.5 µM, respectively.

Turning to `C/C(=C\COc1ccccc1Cc1c(C)ncn1-c1ccc(-c2ccco2)cc1)CCC(=O)O`, the “Ratio EC50” value in [7] is reported as >1000. The molecule further gave a clearance in [1] of 720 mL/min/kg. Also, the EC50 in data set [2] is > 10 µM; in data set [5], 0.059 µM. The molecule further gave a half-life in [3] of 42 min. Besides, the exposure (AUC) in data set [8] came to 70 ng·h/mL.

Consider `Cc1cnc(-c2ccc(Cl)cc2)n1Cc1ccccc1OCCC[C@@H](C)CC(=O)O`, for which the EC50 in data set [2] is > 10 µM; in data set [5] it was 0.0055 µM; in data set [6], > 100 µM. The same molecule showed a half-life in [9] of 84 min. The same molecule came in with an area under the curve (AUC) in data set [4] of 752 ng·h/mL.

As to `C/C(=C\COc1ccccc1Cc1c(C)n[nH]c1-c1ccc(-c2ccco2)cc1)CCC(=O)O`, the “Ratio EC50” value in data set [7] is on record as >1000. Further, in [1], the clearance was 130 mL/min/kg. The values for the concentration giving a half-maximal response (EC50) in [2] and in data set [6] were 5.53 µM and 13.1 µM, respectively. Besides, the half-life in data set [3] was 24 min. The molecule also showed an AUC in [8] of 380 ng·h/mL.

Turning to `Cc1cnc(-c2ccc(-c3ccco3)cc2)n1Cc1ccccc1OCCCCCC(=O)O`, the EC50 in data set [2] was > 10 µM; in data set [5] it was 0.0007 µM; in data set [6], 6.97 µM. This molecule also gave a half-life in [3] of 18 min. The same molecule displayed an AUC in data set [8] of 180 ng·h/mL.

Turning to `C/C(=C\COc1ccccc1Cn1c(C)cnc1-c1ccc(-c2ccco2)cc1)CCC(=O)O`, in [7], the “Ratio EC50” value is >1000. Also, in data set [1], the clearance was determined as 160 mL/min/kg. For the same molecule, the results for the half-maximal effective concentration (EC50) in [2] and in [6] were > 10 µM and 1.23 µM, respectively. In data set [3], this molecule gave a half-life of 30 min. The molecule further displayed an AUC in [8] of 300 ng·h/mL.

Turning to `Cc1cnc(-c2ccc(-c3ccco3)cc2)n1Cc1ccccc1OCCCCC(C)(C)C(=O)O`, the clearance in [1] was 120 mL/min/kg. For the same molecule, the EC50 in data set [2] is > 10 µM. Moreover, the half-life in data set [3] was 144 min. In data set [8], this molecule showed an area under the curve (AUC) of 400 ng·h/mL.

Regarding `Cc1cnc(-c2ccc(F)cc2)n1Cc1ccccc1OCCC[C@@H](C)CC(=O)O`, the concentration giving a half-maximal response (EC50) in data set [2] is > 10 µM; in data set [6], > 100 µM.

For `Cc1cnc(-c2ccc(-c3ccco3)cc2)n1Cc1ccccc1OCCC[C@@H](C)CC(=O)O`, in data set [1], the clearance came out at 73 mL/min/kg. Further, the EC50 in [2] is > 10 µM; in data set [6], > 100 µM. In addition, the half-life in data set [3] is 84 min. Also, the exposure (AUC) in [8] turned out to be 650 ng·h/mL.

`C/C(=C\COc1ccccc1Cc1c(-c2ccc(-c3ccco3)cc2)ncn1C)CCC(=O)O`: in data set [7], the “Ratio EC50” value was >1000. In addition, the clearance in data set [1] turned out to be 300 mL/min/kg. Moreover, the EC50 in data set [2] was > 10 µM; in data set [5], 0.0013 µM; in data set [6], 0.412 µM. The same molecule showed a half-life in data set [3] of 48 min. For the same molecule, in data set [8], the area under the curve (AUC) was determined as 170 ng·h/mL.

For `C/C(=C\COc1ccccc1Cc1c(-c2ccc(-c3ccco3)cc2)noc1C)CCC(=O)O`, in data set [7], the “Ratio EC50” value is given as >1000. The clearance in [1] was 180 mL/min/kg. Also, the EC50 in data set [2] is > 10 µM; in data set [5] it was 0.0015 µM; in [6], 5.84 µM. The half-life in [3] is 12 min. For the same molecule, the AUC in data set [8] came to 280 ng·h/mL.

For the molecule `Cc1cnc(-c2ccc(OC(F)F)cc2)n1Cc1ccccc1OCCC[C@@H](C)CC(=O)O`, the concentration giving a half-maximal response (EC50) in [2] is > 10 µM; in data set [6] it was 15.1 µM.

Regarding `C/C(=C\COc1ccccc1Cc1sc(C)nc1-c1ccc(-c2ccco2)cc1)CCC(=O)O`, in data set [7], the “Ratio EC50” value is recorded as >1000. In data set [1], this molecule had a clearance of 55 mL/min/kg. Besides, the 50% effective concentration (EC50) in data set [2] was > 10 µM; in data set [5], 0.0095 µM; in data set [6], 7.25 µM. In data set [3], the half-life was 48 min. In addition, the area under the curve (AUC) in data set [8] was 900 ng·h/mL.

With `Cc1cnc(-c2ccc(Cl)c(F)c2)n1Cc1ccccc1OCCC[C@@H](C)CC(=O)O`, the 50% effective concentration (EC50) is > 10 µM in data set [2] and 69 µM in [6]. In addition, in data set [9], the half-life is 258 min. The same molecule yielded an exposure (AUC) in [4] of 440 ng·h/mL.

With `C/C(=C\COc1ccccc1Cc1c(C)nnn1-c1ccc(-c2ccco2)cc1)CCC(=O)O`, the “Ratio EC50” value in data set [7] was >1000. This molecule also displayed a clearance in [1] of 225 mL/min/kg. The figures for the concentration for a half-maximal effect (EC50) in [2], in [5] and in data set [6] were > 10 µM, 0.0084 µM and 16.8 µM, respectively. This molecule also had a half-life in [3] of 12 min. In data set [8], this molecule returned an exposure (AUC) of 220 ng·h/mL.

What is called clearance is the volume of plasma or blood freed of the substance per unit of time. Broadly, the EC50 is the concentration giving half of the maximal effect. What is called half-life is the time needed for the level to fall by half in the phase considered. By AUC is commonly meant concentration integrated over time.
